This note sets out measurements from patent publication US12486253B2, “Therapeutics for the degradation of mutant BRAF” (C4 THERAPEUTICS, INC., priority 2021, dated 2025).

Entries after “also recorded” stand apart in the source; their conditions may differ.

In assay [1] the test system is phospho-ERK (T202/Y204). Kind of assay: HTRF phospho-ERK (T202/Y204) inhibition assay in A375 cells. In kind it is cell-based. The settings on record: Homo sapiens, A-375, 24 hrs, mean of at least n = 3, read-out: pERK IC50. How it is done:
A375 (harboring BRAF homozygous V600E mutation) were purchased from ATCC. DMEM Medium without phenol red and supplemented with L-glutamine was purchased from Corning (Corning, NY, USA). Advanced phospho-ERK (Thr202/Tyr204) HTRF assay kits were purchased from Cisbio (Bedford, MA, USA). Cell culture flasks and 384-well microplates were acquired from VWR (Radnor, PA, USA) or Corning (Corning, NY, USA).
(§1) Degradation of activated phospho-ERK (T202/Y204) protein was determined based on quantification of FRET signal using the Advanced phospho-ERK (T202/Y204) HTRF assay kit. Test compounds were added to the 384-well plate from a top concentration of 10 μM with 11 points, half log titration in duplicates. A375 cells were added into 384-well plates at a cell density of 8000 cells per well, respectively. The plates were kept at 37° C. with 5% CO2 for 24 hours. Cells treated in the absence of the test compound were the negative control. Positive control was set by wells containing all reagents but no cells. FRET signal was acquired on EnVision™ Multilabel Reader (PerkinElmer, Santa Clara, CA, USA).
For orientation: In TR-FRET formats the signal depends on donor and acceptor labels being close together.

In assay [2] the test system is H1666 cells endogenously expressing the class III BRAF mutation G466V. Kind of assay: Cellular growth over time in H1666 cells. In kind it is cell-based. To be noted: G466V.
Assay [3] concerns A375 cells expressing the oncogenic NRAS^Q61K mutation. Kind of assay: Cellular growth over time of A375 cells expressing NRAS^Q61K. In kind it is cell-based.
Another assay deals with A375-NRAS^Q61K cells. The assay is described as follows: CellTiter-Glo growth inhibition assay, A375-NRAS^Q61K cells. Format: cell-based. To be noted: 96 hr, mean of at least n = 3. How it is done: A375-NRAS^Q61K cells (harboring BRAF homozygous V600E mutation and NRAS homozygous Q61K mutation) were purchased from ATCC. DMEM Medium (without phenol red and supplemented with L-glutamine) was purchased from Corning (Corning, NY, USA). CellTiter-Glo® 2.0 Assay was purchased from Promega (Madison, WI, USA). Cell culture flasks and 384-well microplates were acquired from VWR (Radnor, PA, USA) or Corning (Corning, NY, USA).
(§2) A375-NRAS^Q61K cell viability was determined based on quantification of ATP using CellTiter-Glo® 2.0 luminescent Assay kit, which signals the presence of metabolically-active cells. Briefly, test compound was added to 384-well plates at a top concentration of 10 μM with 14 points, half log titration in duplicates. A375-NRAS^Q61K cells were seeded into the 384-well plates in DMEM medium containing 10% FBS at a cell density of 250 cells per well. Cells treated in the absence of the test compound were the negative control, normalized to 100% viability, and cells treated in the absence of CellTiter-Glo® 2.0 were the positive control, normalized to 0% viability. A375 cells were incubated at 37° C. with 5% CO2 for 96 hr. CellTiter-Glo reagent was then added to the cells and Luminescence was acquired on EnVision™ Multilabel Reader (PerkinElmer, Santa Clara, CA, USA).
(Cellular ATP, detected with luciferase, serves as a proxy for viable cell number.)

The target of the next assay is BRAF V600E (Homo sapiens, UniProt P15056, V600E). Kind of assay: Western blot of BRAF V600E levels in A375 cells. Format: cell-based. More on the design: host or cells: A375.
BRAF V600E, sequence (P15056 whole entry V600E): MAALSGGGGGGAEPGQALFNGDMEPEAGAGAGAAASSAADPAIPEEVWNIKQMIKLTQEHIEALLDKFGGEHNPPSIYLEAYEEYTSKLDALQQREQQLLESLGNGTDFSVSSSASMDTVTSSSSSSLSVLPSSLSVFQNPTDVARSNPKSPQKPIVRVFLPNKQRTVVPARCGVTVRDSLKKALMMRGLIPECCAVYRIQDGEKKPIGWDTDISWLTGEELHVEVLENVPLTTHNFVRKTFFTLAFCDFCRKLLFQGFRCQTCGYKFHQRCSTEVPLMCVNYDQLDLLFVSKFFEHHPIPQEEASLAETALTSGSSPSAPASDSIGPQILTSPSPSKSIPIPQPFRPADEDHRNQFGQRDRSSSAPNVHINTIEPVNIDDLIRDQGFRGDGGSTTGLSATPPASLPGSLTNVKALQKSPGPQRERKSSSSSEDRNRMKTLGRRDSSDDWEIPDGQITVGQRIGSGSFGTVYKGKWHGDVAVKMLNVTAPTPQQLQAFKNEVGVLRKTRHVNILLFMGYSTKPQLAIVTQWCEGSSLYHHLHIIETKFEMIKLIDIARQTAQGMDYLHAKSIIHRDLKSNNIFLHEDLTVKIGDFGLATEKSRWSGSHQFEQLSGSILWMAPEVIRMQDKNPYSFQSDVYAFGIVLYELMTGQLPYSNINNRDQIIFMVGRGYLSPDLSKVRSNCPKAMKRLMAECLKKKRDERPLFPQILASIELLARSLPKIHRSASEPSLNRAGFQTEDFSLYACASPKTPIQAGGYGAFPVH
Assay [4] relates to ERK phosphorylation. Kind of assay: ERK phosphorylation (pERK) in A375 cells. In kind it is cell-based.
Assay [5] relates to A375 cells. Kind of assay: Cellular confluence of A375 cells by live cell imaging. In kind it is cell-based. To be noted: end of the 7-day experiment.
For assay [6], the target named is BRAF V600E, test compound and CRBN ternary complex (Homo sapiens, UniProt P15056+Q96SW2, V600E). Kind of assay: AlphaLISA ternary complex formation assay. To be noted: GST-BRAF V600E 16 nM, His-CRBN 64 nM. In kind it is binding. How it is done:
Formation of the ternary complex between BRAF V600E, test compound and CRBN was quantified using AlphaLISA® assay. GST-tagged BRAF V600E and His-tagged CRBN were labeled with a donor/acceptor AlphaLISA® pair, and complex formation was monitored via a change in the Alpha-signal. Signal from the control wells was used as a normalization control.
Characterization of the ternary complex formation between GST-BRAF V600E, Compound 157 and his-CRBN was carried out using an AlphaLISA® assay. Compounds were dispensed from serially diluted DMSO stock in low dead volume plates into gray 384-well AlphaPlates using acoustic technology to 1% of total reaction volume. Compounds were arranged vertically in rows A through P. Concentration series were horizontal: columns 1-11, and then duplicates in columns 12-22.
Excitation of the donor beads results in generation of singlet oxygen molecules. […]
A 10 μL mixture containing 16 nM of BRAF V600E and 64 nM of CRBN in 50 mM HEPES (pH 7.4), 200 mM NaCl, 1 mM TCEP, 0.05% Pluronic Acid, 0.1% BSA was added to the wells containing test compounds (columns 1-22) and the negative control wells (column 23). […] Plates were then read on an Envision plate reader with an appropriate AlphaLISA® filter set.
A general note: Bead proximity is the source of the signal in Alpha formats.

The subject of assay [7] is A375 cells. The assay is described as follows: CellTiter-Glo cell growth inhibition, A375 cells. In kind it is cell-based. The settings on record: Homo sapiens, A-375, 72 hr, mean of at least n = 3. How it is done:
as §2, with “A375” for “A375-NRAS^Q61K”, “72” for “96”

Assay [8] has as its system phospho-ERK (T202/Y204). The assay is described as follows: HTRF phospho-ERK (T202/Y204) assay in A375-NRAS^Q61K cells. Format: cell-based. To be noted: 24 hrs, mean of at least n = 3, read-out: pERK IC50.
From the text: A375-NRAS^Q61K cells (harboring BRAF homozygous V600E mutation and NRAS homozygous Q61K mutation) were purchased from ATCC. DMEM Medium without phenol red and supplemented with L-glutamine was purchased from Corning (Corning, NY, USA). Advanced phospho-ERK (Thr202/Tyr204) HTRF assay kits were purchased from Cisbio (Bedford, MA, USA). Cell culture flasks and 384-well microplates were acquired from VWR (Radnor, PA, USA) or Corning (Corning, NY, USA).
as §1, with “A375-NRAS^Q61K” for “A375”, “2000” for “8000”, “well.” for “well, respectively.”

A further assay relates to LOXL4. Kind of assay: Global proteomics profiling, A375 cells. In kind it is cell-based, human. The settings on record: 300 nM, 24 hours. How it is done:
Each cell line was treated in duplicate with either DMSO or Compound 157 (final concentration 300 nM) for 24 hours in an incubator at 37° C. with 5% CO2. After the 24-hour incubation, cells were harvested, washed twice with PBS, and snap frozen in liquid nitrogen. Samples were re-suspended in lysis buffer [8 M urea, 50 mM HEPES (pH 8.5), 50 mM NaCl, 1× protease inhibitor cocktail] and lysed by sonication at 4° C. with 85% amplitude in a pulse setting with 30 seconds on and 30 seconds off for a total sonication time of 5 minutes. Lysates were centrifuged at maximum speed for 10 minutes at 4° C. and the supernatant collected, reduced for 1 hour at room temperature with 5 mM TCEP, and the cysteine residues were then alkylated with 15 mM iodoacetamide (room temperature, in dark, 30 minutes). Protein content was extracted by methanol-chloroform precipitation and subsequent ice-cold acetone washes. Protein pellets were resuspended in 8 M urea, 50 mM HEPES (pH 8.5) buffer and protein concentrations were measured by BCA assay. […]
For peptide tandem mass tag (TMT) labeling, 100 μg of peptides per sample was prepared at […] concentration in 200 mM HEPES (pH 8.5), 30% acetonitrile (ACN) and each the specific TMT reagent. […] TMT reporter ion intensities were quantified by extracting the signal-to-noise ratio for each. […]

In assay [9] the test system is A375 NRAS^Q61K mutant melanoma cell line xenograft. Kind of assay: In vivo efficacy in A375 NRAS^Q61K mutant melanoma xenograft. On the set-up: species or system BALBc/Nude mice. The settings on record: oral gavage, with MEKi trametinib 0.1 mg/kg BID.
The subject of assay [10] is ERK phosphorylation. Kind of assay: Western blot of ERK phosphorylation in A375 cells expressing NRAS^Q61K. In kind it is cell-based. To be noted: 24 hours.

BRAF V600E, test compound and CRBN ternary complex, sequence (P15056 whole entry V600E): as above
BRAF V600E, test compound and CRBN ternary complex, sequence (Q96SW2 whole entry): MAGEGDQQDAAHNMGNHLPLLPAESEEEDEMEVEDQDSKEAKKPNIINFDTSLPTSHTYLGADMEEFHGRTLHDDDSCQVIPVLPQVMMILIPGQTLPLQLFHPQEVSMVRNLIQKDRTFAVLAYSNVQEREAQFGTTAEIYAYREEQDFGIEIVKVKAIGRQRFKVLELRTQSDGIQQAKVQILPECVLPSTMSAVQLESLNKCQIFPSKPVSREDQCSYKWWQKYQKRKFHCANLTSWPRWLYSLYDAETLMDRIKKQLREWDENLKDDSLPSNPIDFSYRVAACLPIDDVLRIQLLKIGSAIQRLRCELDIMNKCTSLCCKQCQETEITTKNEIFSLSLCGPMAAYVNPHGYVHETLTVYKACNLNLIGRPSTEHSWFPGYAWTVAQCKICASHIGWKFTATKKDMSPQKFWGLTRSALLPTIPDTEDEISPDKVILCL

What is called IC50 is the midpoint of a concentration-inhibition curve. As usually defined, the GI50 is the concentration giving 50% growth inhibition. A low value points to greater sensitivity of the cells. In the case of `CCN(C)S(=O)(=O)Nc1ccc(F)c(Oc2ccc3ncn([C@H]4COC5(CCN(C(=O)CC6(O)CCN(c7cc8c(cc7F)c(N7CCC(=O)N(C)C7=O)nn8C)CC6)CC5)C4)c(=O)c3c2)c1C#N` [Compound 157^NMe, reference compound], the half-inhibitory concentration (IC50) in the assay on phospho-ERK (T202/Y204) [1] turned out to be 13.5 nM; in the assay with phospho-ERK (T202/Y204) [8], 36.8 nM. In addition, the results for the cell growth inhibition result in assay [2] and in assay [3] were “not inhibited as significantly” and “not inhibited”, respectively. Also, the figures for the GI50 in the assay with A375-NRAS^Q61K cells and in the assay on A375 cells [7] were 794 nM and 22.5 nM, respectively. Moreover, on BRAF V600E, the “BRAF V600E levels” value is “remain unchanged”. For the same compound, the “ERK phosphorylation by western blot” value in the assay with ERK phosphorylation [4] is given as “not as pronounced”. In addition, in the assay with A375 cells [5], the cellular confluence entry was “approximately 70%”. In addition, in [6], the “Ternary complex formation (concentration dependence)” value is reported as “no complex formation was observed”.

On to `CC(C)(C)c1nc(-c2cccc(NS(=O)(=O)c3c(F)cccc3F)c2F)c(-c2ccnc(N)n2)s1` [dabrafenib, reference compound], for which the “LOXL4 protein level change” value in the assay on LOXL4 is listed as “decreased on the dabrafenib treated samples, to a lesser extent”.

As for `COC(=O)N[C@@H](C)CNc1nccc(-c2cn(C(C)C)nc2-c2cc(Cl)cc(NS(C)(=O)=O)c2F)n1` [encorafenib, reference compound], the IC50 in the assay with phospho-ERK (T202/Y204) [1] was determined as 2.1 nM; in the assay on phospho-ERK (T202/Y204) [8], 31 nM. Further, the cell growth inhibition entry in assay [2] is recorded as “no activity; also recorded: does not inhibit cell growth”; in [3] it was “does not inhibit cell growth”. The GI50 came to 911 nM in the assay with A375-NRAS^Q61K cells and 8 nM in the assay on A375 cells [7]. Besides, the “tumor response, in combination with trametinib” value in assay [9] was “no activity”. The “ERK phosphorylation, in combination with trametinib” value with ERK phosphorylation [10] (with 1 nM trametinib) is given as “unable to significantly suppress”. For the same compound, the “ERK phosphorylation, alone” value with ERK phosphorylation [10] (without trametinib) is “unable to significantly suppress”.
